Experimental data: paper PMC7613620, “Reaction hijacking of tyrosine tRNA synthetase as a whole-of-life-cycle antimalarial strategy” (Science (New York, N.Y.), 2022)

Legend:
H1650 = H1650 cell viability (ATP content); type: cell-based; settings: Homo sapiens, NCI-H1650, read-out: H1650 IC50(72h); 72 h; ATG7-null cell line
Method: 574 H1650 is a human lung cancer derived ATG7-null cell line (49) that can be used to assess effects on targets
576 adenocarcinoma; bronchoalveolar carcinoma). Other cells lines used are: H460 (NCI-H460; human lung;
577 carcinoma; large cell lung cancer; ATCC: HTB-177); and HCT116 (human colon; colorectal carcinoma;
578 ATCC: CCL-247; Lot : 5056139). Each of the cell lines was received from the American Type Culture
579 Collection (ATCC) and passaged twice before freezing. Cells were cultured in the presence or absence of
580 inhibitors and cell viability was assessed by comparing the ATP content in compound-treated wells with
581 that in DMSO-treated wells as previously described (11). […]
585 37°C humidified incubator as adherent semi-confluent monolayers in complete Dulbecco’s Modified Eagle
586 Media (c-DMEM). DMEM (Gibco™, Thermo Fisher Scientific, Australia) was supplemented with 10%

P. falciparum Dd2 = assay: 72-h sensitivity of wildtype Dd2 parent line; type: cell-based; settings: Plasmodium falciparum, 72-h exposure
Method: 700 the drug plate. Lowest drug treatment and a lethal dose of chloroquine (200 nM) served as reference
701 controls. Growth inhibition was analysed after 72 h using the Renilla-Glo(R) Luciferase Assay System (ref
702 no E2750 Promega) and the GloMax® Discover Multimode Microplate Reader (Promega), and IC50 values
703 were obtained from corrected dose-response curves using GraphPad Prism (version 8; GraphPad Software). […]
729 Cam 3.II_Rev (25) trophozoite-infected RBCs (25-30 h p.i.) were incubated with inhibitor for 3 h at 10%
730 hematocrit and 5% parasitemia. The RBC pellet was washed 3 x in PBS + cOmplete. Cells were centrifuged
731 at 380 x g for 5 min and the pelleted cells lysed by resuspension in PBS + 0.05% saponin for 5 min on ice.

PfYRS = PfYRS (Plasmodium falciparum, UniProt Q8IAR7); assay: biochemical; type: binding; settings: PfYRS incubated with ML901 in the presence of Tyr, ATP and tRNATyr
PfYRS, sequence (Q8IAR7 entry or part of it): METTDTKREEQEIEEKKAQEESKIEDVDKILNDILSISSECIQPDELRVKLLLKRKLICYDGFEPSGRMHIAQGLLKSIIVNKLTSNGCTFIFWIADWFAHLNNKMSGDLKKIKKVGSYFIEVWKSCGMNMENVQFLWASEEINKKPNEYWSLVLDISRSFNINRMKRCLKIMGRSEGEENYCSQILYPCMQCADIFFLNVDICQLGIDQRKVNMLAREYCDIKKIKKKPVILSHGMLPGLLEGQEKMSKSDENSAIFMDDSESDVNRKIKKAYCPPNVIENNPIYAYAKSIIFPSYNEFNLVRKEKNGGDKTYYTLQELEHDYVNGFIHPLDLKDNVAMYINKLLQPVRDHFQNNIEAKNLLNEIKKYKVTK
Method: 804 An intron was detected in the PftRNATyr sequence, that was not indicated in PlasmoDB. A T7 RNA
805 polymerase promoter sequence was added to the 5’ end of the DNA sequence of P. falciparum and H.
806 sapiens tRNATyr. This DNA template and its complementary strand were custom-synthesized by Sigma-
807 Aldrich. Two oligonucleotides were annealed at 95°C for 5 min and the double-stranded DNA template
808 was used for in vitro transcription. The transcription reaction was incubated at 37°C overnight. The reaction
809 mixture consists of template DNA, T7 RNA polymerase and NTP mix as per manufacturer's instructions
810 (HiScribe™ T7 Quick High Yield RNA Synthesis Kit, NEB). On the following day, the reaction mixture
811 was treated with DNase I at 37°C for 15 min. tRNA was purified using RNA clean-up spin columns
812 (Monarch® RNA Cleanup Kit, NEB) to remove contaminants from the transcription reaction.
814 Differential scanning fluorimetry (DSF)
815 PfYRS and HsYRS at 0.1 mg/ml were incubated with various substrates at 37°C for 1-3 h. PfYRS was
816 assayed in 25 mM Tris, pH 8, 150 mM NaCl, 5 mM MgCl2 and 1 mM TCEP. HsYRS was assayed in 50
817 mM Tris, pH 7.5, 150 mM NaCl, 50 mM KCl, 5 mM MgCl2 and 1 mM TCEP. SYPRO Orange (Sigma-
818 Aldrich; 5,000X concentrate in DMSO) was added to the reaction mixture at a final concentration of 2.5X.
819 25 µL of the sample was added into each well of a 96-well qPCR plate (Applied Biosystems). The plate
820 was sealed and analysed using StepOnePlus Real-Time PCR system (Applied Biosystems). The samples
821 were heated from 20°C to 90°C with a 1% continuous gradient. The thermal unfolding curve was plotted
822 as the first derivative curve of the raw fluorescence values. The melting temperature (Tm), defined as the
823 peak of the first derivative curve, was used to assess the thermal stability of protein-ligand complexes. KD
824 values were calculated from DTm using the equation: ln(KD/[L]) = -131.5 x (∆Tm/Tm,apo) - 1.9, where [L]
825 is the concentration of ligand and T is the temperature in Kelvin (40). […]

HsYRS = target: T1, HsYRS (Homo sapiens, UniProt P54577); assay: Tyrosine acylation of cognate tRNATyr by HsYRS; type: biochemical; settings: YRS 0.25 μM, ATP 10 μM, 37°C 1 h
T1 construct: made in house; host or cells: E. coli BL21(DE3), pET-11a
T1 sequence (P54577 1-364): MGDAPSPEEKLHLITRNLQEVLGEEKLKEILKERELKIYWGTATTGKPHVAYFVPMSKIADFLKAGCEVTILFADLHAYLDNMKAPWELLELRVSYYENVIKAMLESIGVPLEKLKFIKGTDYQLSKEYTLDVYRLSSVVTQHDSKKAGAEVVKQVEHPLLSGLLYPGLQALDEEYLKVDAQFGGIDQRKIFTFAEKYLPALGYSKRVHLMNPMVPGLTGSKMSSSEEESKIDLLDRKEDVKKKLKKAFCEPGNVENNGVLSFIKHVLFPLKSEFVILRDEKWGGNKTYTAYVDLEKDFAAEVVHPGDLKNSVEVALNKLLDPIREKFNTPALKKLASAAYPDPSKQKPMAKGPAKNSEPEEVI

## Nc1ncnc2c1c(OC(F)F)nn2[C@@H]1O[C@H](COS(N)(=O)=O)[C@@H](O)[C@H]1O [ML901]
H1650
  IC50: 10.7 µM
P. falciparum Dd2
  IC50: 0.0022 ± 0.0003 µM
PfYRS
  increase of apparent protein melting point (Tm): 15 °C
HsYRS
  IC50: > 500 µM
